{
  "source": "patent US10487056B2",
  "about": "“Small molecule androgen receptor inhibitors and methods of use thereof” (GEORGETOWN UNIVERSITY, priority 2015, dated 2019)",
  "type_in_all_cases": "cell-based",
  "key": {"[1]": {"target": "T1, AR (Homo sapiens, UniProt P10275)", "T1 construct": "Androgen-dependent VCaP cells were made to stably express an androgen-response element luciferase reporter (VCaP-ARE-luc); host or cells: VCaP / VCaP-ARE-luc", "T1 sequence (P10275 1-920)": "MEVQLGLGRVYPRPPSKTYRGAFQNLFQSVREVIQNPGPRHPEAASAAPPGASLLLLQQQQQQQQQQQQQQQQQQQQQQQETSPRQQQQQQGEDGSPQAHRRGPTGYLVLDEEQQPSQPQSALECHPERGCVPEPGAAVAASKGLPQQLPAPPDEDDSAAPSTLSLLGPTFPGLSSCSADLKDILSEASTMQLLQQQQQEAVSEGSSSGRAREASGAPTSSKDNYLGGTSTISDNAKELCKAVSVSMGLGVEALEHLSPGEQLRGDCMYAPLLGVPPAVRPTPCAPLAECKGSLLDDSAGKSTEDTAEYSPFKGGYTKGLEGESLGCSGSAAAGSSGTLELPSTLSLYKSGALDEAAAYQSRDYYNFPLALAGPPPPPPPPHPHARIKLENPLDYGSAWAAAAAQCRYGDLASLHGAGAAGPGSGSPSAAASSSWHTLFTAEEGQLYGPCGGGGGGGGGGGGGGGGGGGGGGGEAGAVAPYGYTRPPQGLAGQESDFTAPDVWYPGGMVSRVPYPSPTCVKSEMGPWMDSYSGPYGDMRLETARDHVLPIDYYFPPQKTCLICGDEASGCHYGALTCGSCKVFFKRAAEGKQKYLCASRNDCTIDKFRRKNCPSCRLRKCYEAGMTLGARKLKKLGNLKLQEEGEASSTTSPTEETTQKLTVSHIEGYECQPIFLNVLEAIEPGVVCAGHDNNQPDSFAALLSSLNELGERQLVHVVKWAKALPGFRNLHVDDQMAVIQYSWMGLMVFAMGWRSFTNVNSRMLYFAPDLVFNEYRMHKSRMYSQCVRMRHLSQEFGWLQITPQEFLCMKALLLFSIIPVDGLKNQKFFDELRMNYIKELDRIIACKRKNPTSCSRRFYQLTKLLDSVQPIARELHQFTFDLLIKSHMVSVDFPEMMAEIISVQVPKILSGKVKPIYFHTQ", "test": "VCaP-ARE-luc androgen-response element luciferase reporter assay", "conditions": "DHT 1 nM, 24 hours", "experimental": "VCaP and CWR22Rv1 (referred to as 22Rv1) cells were transduced with ARE-luciferase Cignal Lenti Pathway Reporter (Qiagen; Valencia, Calif.) and cultured as described above in the presence of 1 μg/mL puromycin. Following antibiotic selection, cells stably expressing ARE-luciferase were isolated, cloned and cultured to generate a stable ARE-reporter cell lines.\nAndrogen-dependent VCaP cells were made to stably express an androgen-response element luciferase reporter (VCaP-ARE-luc)."}, "[2]": {"test_system": "estrogen response element", "test": "Estrogen response element (ERE) luciferase reporter in 22Rv1 cells", "conditions": "1 μM, 24 hours", "experimental": "22Rv1 cells were transfected with ERE promoter-luciferase reporter construct and Renilla luciferase plasmids (pRL-TK-Luc) and treated with 1 μM of SH-I-125 for 24 hours. Promoter activity was determined after normalization with Renilla luciferase activity. Columns, mean of three independent experiments with quadruplicate samples; bars, SEM."}, "[3]": {"target": "T1, AR", "test": "Immunofluorescence staining and Western blot of AR and PSA in VCaP cells", "conditions": "DHT 1 nM, MDV3100 10 μM or SH-I-125 1 μM, 24 hours", "experimental": "Androgen receptor (AR) and PSA expression levels were assessed.\nAR and PSA expression levels were assessed. B-actin was used as a loading control."}, "[4]": {"test_system": "22Rv1-MDVR cells", "test": "Caspase-Glo 3/7 activity assay, 22Rv1-MDVR cells", "conditions": "SH-I-125 1 μM, 3 days", "experimental": "Caspase 3/7 activity was measured using Caspase-Glo 3/7 substrates. Data represent mean of three independent experiments with quadruplicate samples; bars, SEM.\nThe emergence of resistance to clinical anti-androgens is an ongoing problem in the treatment of castration-resistant prostate cancer."}},
  "data": [
    {"molecule": "COc1ccc2c(c1)[nH]c1c(C)c(OS(=O)(=O)c3cccc4ccccc34)ccc12", "note": "[SH-I-125, 7-methoxy-1-methyl-9H-carbazol-2-yl naphthalene-1-sulfonate]", "values": [
      {"measurement": "potency relative to mahanine on AR signaling (ARE-luc)", "setting": "[1]", "result": "more potent than mahanine"},
      {"measurement": "inhibition of AR transactivation (luciferase activity)", "setting": "[1]; range of doses", "result": "comparable decline in luciferase activity"},
      {"measurement": "ERE promoter-luciferase activity", "setting": "[2]", "result": "unaffected"},
      {"measurement": "AR nuclear localization", "setting": "[3]", "result": "blocked AR nuclear localization"},
      {"measurement": "PSA expression", "setting": "[3]", "result": "inhibited PSA expression"},
      {"measurement": "caspase 3/7 activation", "setting": "[4]", "result": "inducing caspase activation"}
    ]}
  ]
}
